Assay results reported in US11999727B2 (Tango Therapeutics, Inc., priority 2020, dated 2024).
pIC50: −log10 of the molar value. Like-named read-outs stand apart in the source and are kept apart here.

How the values were obtained:
[1] = system: HAP1 MTAP-deleted cell line; test: Viability assay, MTAP-deleted cell line; assay type: cell-based; settings: HAP1 MTAP-deleted, read-out: HAP1 MTAP deleted viability
From the text: Table 1 additionally indicates IC50 values in a viability assay for the MTAP-deleted cell line (column 10), indicating the effect of treatment with compound on cell survival.

[2] = system: HAP1 MTAP-deleted cell line; test: SDMA in-cell western assay, HAP1 MTAP-deleted; assay type: cell-based; settings: for pIC50: HAP1 MTAP-deleted, read-out: HAP1 MTAP deleted IC50; for MTAP intact/deleted ratio: IC50 ratio HAP1 MTAP-intact / HAP1 MTAP-deleted
Method in brief: (§1)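 Readout: in-cell western detection of SDMA. Cells: HAP1 expressing endogenous MTAP and an MTAP-null HAP1 counterpart. Output: IC50.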

PRMT5 [3] = molecular target: T1, PRMT5 (Homo sapiens, UniProt O14744); test: PRMT5 biochemical IC50 assay with SAM as cofactor; settings: PRMT5, SAM as cofactor; read-out: SAM IC50
T1 construct: purchased Viva (custom protein)

[4] = system: HAP1 MTAP-intact cell line; test: SDMA in-cell western assay, HAP1 MTAP-intact; assay type: cell-based; settings: HAP1 MTAP-intact, read-out: MTAP HAP1 intact IC50
Method in brief: as §1

PRMT5 [5] = molecular target: T1, PRMT5; test: PRMT5 biochemical IC50 assay with MTA as cofactor; settings: PRMT5, MTA as cofactor; read-out: MTA IC50
PRMT5 [6] = molecular target: T1, PRMT5; test: PRMT5 biochemical IC50 assay with no cofactor; settings: PRMT5, no cofactor; read-out: No Cofactor/rel IC50
From the text: Table 1 indicates IC50 values (μM) against PRMT5 for exemplary compounds in the presence of SAM as cofactor, with no cofactor, and with MTA as cofactor, respectively (columns 4-6). […] Ki values can be calculated from the IC50 values as described in the Examples section. As detailed in the Examples section, for the assay performed in the presence of SAM, IC50=Ki×1.5 (Ki=IC50/1.5).

[7] = Homo sapiens, HAP1, viability assay
[8] = Homo sapiens, HAP1, SDMA in-cell western

T1 sequence (O14744 whole entry): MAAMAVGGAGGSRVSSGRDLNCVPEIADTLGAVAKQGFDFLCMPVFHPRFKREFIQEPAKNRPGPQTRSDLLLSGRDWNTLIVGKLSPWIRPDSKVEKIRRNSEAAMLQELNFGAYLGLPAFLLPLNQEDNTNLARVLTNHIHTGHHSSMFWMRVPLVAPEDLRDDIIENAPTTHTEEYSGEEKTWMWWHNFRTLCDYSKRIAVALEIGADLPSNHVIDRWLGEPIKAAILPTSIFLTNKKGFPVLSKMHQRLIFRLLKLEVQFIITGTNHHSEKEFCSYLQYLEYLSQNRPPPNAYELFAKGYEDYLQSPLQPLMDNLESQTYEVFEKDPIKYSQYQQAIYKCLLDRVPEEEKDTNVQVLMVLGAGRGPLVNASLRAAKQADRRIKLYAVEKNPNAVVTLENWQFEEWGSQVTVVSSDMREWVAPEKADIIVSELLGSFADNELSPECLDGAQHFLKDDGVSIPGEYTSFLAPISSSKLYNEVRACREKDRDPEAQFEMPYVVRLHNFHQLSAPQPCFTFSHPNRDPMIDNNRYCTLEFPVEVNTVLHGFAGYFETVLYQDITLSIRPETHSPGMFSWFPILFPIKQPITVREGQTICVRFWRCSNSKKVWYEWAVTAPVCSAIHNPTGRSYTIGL
T1 sequence (Q9BQA1 whole entry partner): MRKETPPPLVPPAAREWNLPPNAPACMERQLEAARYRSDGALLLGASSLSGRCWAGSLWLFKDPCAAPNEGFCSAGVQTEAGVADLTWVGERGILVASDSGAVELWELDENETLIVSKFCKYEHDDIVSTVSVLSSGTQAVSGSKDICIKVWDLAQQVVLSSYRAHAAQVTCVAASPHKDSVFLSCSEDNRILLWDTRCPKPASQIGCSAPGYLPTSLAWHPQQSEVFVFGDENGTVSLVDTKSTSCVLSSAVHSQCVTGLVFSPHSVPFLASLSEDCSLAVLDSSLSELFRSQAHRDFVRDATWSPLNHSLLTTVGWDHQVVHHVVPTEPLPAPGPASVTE

Compound	pIC50 [1, 7]	pIC50 [2, 8]	MTAP intact/deleted ratio ([2]; SDMA in-cell western)	pIC50 (PRMT5 [3])	pIC50 [4, 8]	pIC50 (PRMT5 [5])	pIC50 (PRMT5 [6])	pIC50 ([2]; SDMA in-cell western)	pIC50 ([1]; viability assay)	pIC50 ([4]; SDMA in-cell western)
CCc1cc(NC(=O)C(=O)N2C[C@H](C)CC[C@H]2c2ccc(C)nc2)cnc1N (single isomer, unassigned) [Compound 756]	< 5.00	< 6.00	B (an IC50 ratio greater than or equal to 3 fold but lower than 10 fold)	< 6.30	< 6.00	< 6.30	< 6.30	–	–	–
COc1ncc(NC(=O)C(=O)N2C[C@H](C)CC[C@H]2c2ccc(NC(C)=O)cc2)cc1C(N)=O (single isomer, unassigned) [Compound 760]	> 6.00	> 7.00	A (an IC50 ratio greater than or equal to 10 fold)	6.30 to 7.30	< 6.00	> 7.30	> 7.30	–	–	–
COc1ncc(NC(=O)C(=O)N2C[C@@H](C)CC[C@@H]2c2ccc(NC(C)=O)cc2)cc1C(N)=O (single isomer, unassigned) [Compound 761]	< 5.00	< 6.00	C (an IC50 ratio of less than 3 fold)	< 6.30	< 6.00	< 6.30	< 6.30	–	–	–
Cc1cc(NC(=O)C(=O)N2C[C@@H](C)CC[C@@H]2c2ccc3[nH]c(=O)ccc3c2)cnc1N (single isomer, unassigned) [Compound 762]	> 6.00	> 7.00	B (an IC50 ratio greater than or equal to 3 fold but lower than 10 fold)	> 7.30	> 7.00	> 7.30	> 7.30	–	–	–
Cc1cc(NC(=O)C(=O)N2C[C@H](C)CC[C@H]2c2ccc3[nH]c(=O)ccc3c2)cnc1N (single isomer, unassigned) [Compound 763]	< 5.00	< 6.00	B (an IC50 ratio greater than or equal to 3 fold but lower than 10 fold)	< 6.30	< 6.00	< 6.30	< 6.30	–	–	–
CCOc1ncc(NC(=O)C(=O)N2C[C@@H](C)CC[C@@H]2c2ccccc2)cc1C(N)=O (single isomer, unassigned) [Compound 764]	5.00 to 6.00	6.00 to 7.00	A (an IC50 ratio greater than or equal to 10 fold)	6.30 to 7.30	< 6.00	> 7.30	6.30 to 7.30	–	–	–
CCOc1ncc(NC(=O)C(=O)N2C[C@H](C)CC[C@H]2c2ccccc2)cc1C(N)=O (single isomer, unassigned) [Compound 765]	< 5.00	< 6.00	C (an IC50 ratio of less than 3 fold)	< 6.30	< 6.00	< 6.30	< 6.30	–	–	–
[H][C@]1([C@]2([H])C[C@]3(C[C@H](O)C3)C2)CC[C@H](C)CN1C(=O)C(=O)Nc1cnc(N)c(C)c1 (single isomer, unassigned) [Compound 766]	< 5.00	–	C (an IC50 ratio of less than 3 fold)	< 6.30	< 6.00	< 6.30	< 6.30	< 6.00	–	–
[H][C@@]1([C@]2([H])C[C@@]3(C[C@H](O)C3)C2)CC[C@@H](C)CN1C(=O)C(=O)Nc1cnc(N)c(C)c1 (single isomer, unassigned) [Compound 767]	< 5.00	< 6.00	B (an IC50 ratio greater than or equal to 3 fold but lower than 10 fold)	6.30 to 7.30	< 6.00	6.30 to 7.30	< 6.30	–	–	–
[H][C@]1([C@]2([H])C[C@@]3(C[C@H](O)C3)C2)CC[C@H](C)CN1C(=O)C(=O)Nc1cnc(N)c(C)c1 (single isomer, unassigned) [Compound 768]	–	–	B (an IC50 ratio greater than or equal to 3 fold but lower than 10 fold)	6.30 to 7.30	–	6.30 to 7.30	6.30 to 7.30	6.00 to 7.00	< 5.00	< 6.00
[H][C@@]1([C@]2([H])C[C@]3(C[C@H](O)C3)C2)CC[C@@H](C)CN1C(=O)C(=O)Nc1cnc(N)c(C)c1 (single isomer, unassigned) [Compound 769]	–	–	C (an IC50 ratio of less than 3 fold)	< 6.30	–	< 6.30	< 6.30	< 6.00	< 5.00	< 6.00
COc1ncc(NC(=O)C(=O)N2C[C@@H](C)CC[C@@H]2c2ccc(C)nc2)cc1C(N)=O (single isomer, unassigned) [Compound 770]	< 5.00	< 6.00	C (an IC50 ratio of less than 3 fold)	< 6.30	< 6.00	< 6.30	< 6.30	–	–	–
CCc1cc(NC(=O)C(=O)N2C[C@H](C)CC[C@H]2c2ccc3[nH]cnc3c2)cnc1N (single isomer, unassigned) [Compound 771]	< 5.00	< 6.00	C (an IC50 ratio of less than 3 fold)	< 6.30	< 6.00	< 6.30	< 6.30	–	–	–
C[C@H]1CC[C@H](c2ccc(-c3nccs3)cc2)N(C(=O)C(=O)Nc2cncc(C(N)=O)c2)C1 (single isomer, unassigned) [Compound 772]	< 5.00	< 6.00	B (an IC50 ratio greater than or equal to 3 fold but lower than 10 fold)	< 6.30	< 6.00	< 6.30	< 6.30	–	–	–
Cc1cc(NC(=O)C(=O)N2C[C@H](C)C(F)(F)C[C@H]2c2ccc(F)cc2)cnc1N (single isomer, unassigned) [Compound 777]	< 5.00	< 6.00	B (an IC50 ratio greater than or equal to 3 fold but lower than 10 fold)	< 6.30	< 6.00	< 6.30	< 6.30	–	–	–
C[C@H]1CC[C@H](c2ccc3[nH]ncc3n2)N(C(=O)C(=O)Nc2cncc(C(N)=O)c2)C1 (single isomer, unassigned) [Compound 778]	5.00 to 6.00	> 7.00	A (an IC50 ratio greater than or equal to 10 fold)	6.30 to 7.30	< 6.00	> 7.30	> 7.30	–	–	–
Cc1cc(NC(=O)C(=O)N2C[C@@H](C)CC[C@@H]2c2ccc3[nH]ncc3n2)cnc1N (single isomer, unassigned) [Compound 780]	< 5.00	6.00 to 7.00	A (an IC50 ratio greater than or equal to 10 fold)	< 6.30	< 6.00	< 6.30	< 6.30	–	–	–
Cc1cc(NC(=O)C(=O)N2C[C@H](C)CC[C@H]2c2ccn(-c3cc[nH]n3)n2)cnc1N (single isomer, unassigned) [Compound 782]	> 6.00	> 7.00	A (an IC50 ratio greater than or equal to 10 fold)	> 7.30	6.00 to 7.00	> 7.30	> 7.30	–	–	–
C[C@@H]1CC[C@@H](c2ccc(-c3nccs3)cc2)N(C(=O)C(=O)Nc2cncc(C(N)=O)c2)C1 (single isomer, unassigned) [Compound 783]	5.00 to 6.00	> 7.00	A (an IC50 ratio greater than or equal to 10 fold)	6.30 to 7.30	< 6.00	> 7.30	6.30 to 7.30	–	–	–
CCc1cc(NC(=O)C(=O)N2C[C@@H](C)CC[C@@H]2c2ccc(C)nc2)cnc1N (single isomer, unassigned) [Compound 784]	> 6.00	> 7.00	A (an IC50 ratio greater than or equal to 10 fold)	6.30 to 7.30	< 6.00	> 7.30	> 7.30	–	–	–
Cc1cc(NC(=O)C(=O)N2C[C@H](C)CC[C@H]2c2cccc3[nH]ncc23)cnc1N (single isomer, unassigned) [Compound 785]	> 6.00	> 7.00	A (an IC50 ratio greater than or equal to 10 fold)	6.30 to 7.30	6.00 to 7.00	> 7.30	> 7.30	–	–	–
Cc1cc(NC(=O)C(=O)N2C[C@@H](C)C(F)(F)C[C@@H]2c2ccc(F)cc2)cnc1N (single isomer, unassigned) [Compound 786]	> 6.00	> 7.00	A (an IC50 ratio greater than or equal to 10 fold)	6.30 to 7.30	6.00 to 7.00	> 7.30	> 7.30	–	–	–
